US12343334B2, “Compositions and methods for treating severe constipation” (Serleva, Inc., priority 2018, dated 2025)

Test system: Male C57BL mice with loperamide-induced constipation
Experiment: Mouse model of loperamide-induced constipation
Assay type: in vivo
Details: Product 1 30 mg/kg oral gavage, 30 min after loperamide 10 mg/kg, final study day, compared to Loperamide/Vehicle
Procedure: Mouse Model of Loperamide-Induced Constipation
Male C57BL mice (6 to 8 weeks, 25-30 grams) were placed on high-fat diet (45% fat) and allowed to acclimate (singly housed on a 12 hr light/dark cycle) for 6 days. Loperamide was administered by oral gavage at 10 mg/kg (10% DMSO/90% of 20% SBE-β-CD in saline) for 3 consecutive days prior to study initiation.
Daily loperamide dosing was continued throughout the entire study. On the 4, day of loperamide administration, Product 1 (30 mg/kg in 10% DMSO/90% of 20% SBE-β-CD in saline) was administered 30 minutes later by oral gavage. Sequential treatment of loperamide and Product 1 (30 minutes post-loperamide dose) was continued for 2 additional days. On the final day of the study, a fourth group of animals received a single subcutaneous administration of naloxone (1 mg/kg) as a positive control.
On the final study day, the number of fecal pellets and pellet weights for each animal were recorded hourly for the 6 hours following dosing. Fecal pellet output was then recorded every other hour for the period of 6-12 hours post-dosing. Additionally, total fecal pellet count for the period of 12 to 24 hours was measured. Fecal pellets were dried for 24 hours and dry weight recorded.
Prism software (GraphPad Prism, San Diego, CA) was employed for graphs and curve fitting. Data was analyzed using a two-way ANOVA with post-hoc LSD test.

O=C(O)CC1CCC(c2ccc(-c3ccc(Nc4ccc(C(F)(F)F)nc4)cn3)cc2)CC1 (stereo not drawn) [Product 1]
significant increase: wet weights of fecal pellets (FPWW) (1-4 hours after administration, FIG. 2) | dry weights of fecal pellets (FPDW) (1-4 hours after administration, FIG. 3) | fecal pellet output (FPCO) (first 1-4 hours after administration, FIG. 1)
